The target in one assay is T1, SUMO (Homo sapiens, UniProt Q9UBT2).
T1 sequence (Q9UBT2 1-640): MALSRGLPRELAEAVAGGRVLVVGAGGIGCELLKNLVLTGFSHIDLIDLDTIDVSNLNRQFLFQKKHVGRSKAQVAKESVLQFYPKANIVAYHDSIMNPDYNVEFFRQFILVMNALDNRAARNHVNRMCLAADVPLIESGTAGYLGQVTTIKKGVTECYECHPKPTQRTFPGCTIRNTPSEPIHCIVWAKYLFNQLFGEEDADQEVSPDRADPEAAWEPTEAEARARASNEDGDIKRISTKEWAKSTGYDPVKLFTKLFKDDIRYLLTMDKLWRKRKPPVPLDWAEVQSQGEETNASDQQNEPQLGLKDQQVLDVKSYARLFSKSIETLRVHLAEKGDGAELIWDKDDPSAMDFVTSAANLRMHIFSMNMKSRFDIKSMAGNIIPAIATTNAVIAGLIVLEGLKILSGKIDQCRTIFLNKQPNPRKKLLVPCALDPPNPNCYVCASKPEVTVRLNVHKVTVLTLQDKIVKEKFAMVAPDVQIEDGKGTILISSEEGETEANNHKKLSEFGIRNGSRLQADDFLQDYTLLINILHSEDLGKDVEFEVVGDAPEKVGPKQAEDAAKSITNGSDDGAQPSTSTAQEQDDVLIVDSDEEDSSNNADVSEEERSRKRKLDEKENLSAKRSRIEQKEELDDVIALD
T1 sequence (Q9UBE0 1-346 partner): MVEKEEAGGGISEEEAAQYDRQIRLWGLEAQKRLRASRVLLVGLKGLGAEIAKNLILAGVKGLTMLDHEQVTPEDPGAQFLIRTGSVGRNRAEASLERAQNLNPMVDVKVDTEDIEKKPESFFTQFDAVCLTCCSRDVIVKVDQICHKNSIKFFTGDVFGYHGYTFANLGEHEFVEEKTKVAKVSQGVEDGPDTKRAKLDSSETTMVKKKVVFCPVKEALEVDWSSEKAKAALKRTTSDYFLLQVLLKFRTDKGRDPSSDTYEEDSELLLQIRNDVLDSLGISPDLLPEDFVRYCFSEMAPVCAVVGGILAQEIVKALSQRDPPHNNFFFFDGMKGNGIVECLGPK
Description: SUMO activity (Table I, biological activities). Type of assay: biochemical. Also noted: key: + (less active); ++ (active); +++ (most active).

A further assay concerns c-Myc. Put plainly: c-Myc activity (Table I, biological activities). Set-up: key: + (less active); ++ (active); +++ (most active).

This passage reports SUMO and c-Myc results from patent publication US11578079B2, “SUMO inhibitor compounds and uses thereof” (CITY OF HOPE, priority 2018, dated 2023).

With `CCOC(=O)C1=C(C(=O)Nc2ccc(OC)cc2OC)C2C=CC1(C(Nc1ccccc1)c1ccc(CN3CCOCC3)cc1)O2` (centres unmarked) [Compound 610], the SUMO entry on SUMO is given as “+”. In the assay on c-Myc, the c-Myc entry is given as “+”.
Regarding `COC(=O)C1=C(C(=O)Nc2ccncc2)C2C=CC1(C(Cc1ccccc1)Nc1cc(F)cc(Cl)c1)O2` (centres unmarked) [Compound 220], the SUMO entry at SUMO is “++”. Further, the c-Myc result in the assay on c-Myc was “+”.
The corresponding values for `COC(=O)C1=C(C(=O)NC2CCN(C(=O)c3ccc(Cl)cc3)CC2)C2C=CC1(C(Cc1ccccc1)Nc1ccccc1)O2` (centres unmarked) [Compound 380] are “++” and “+”.
In the same order, the values of `COC(=O)C1=C(C(=O)NCCNC(=O)Nc2ccccc2)C2C=CC1(C(Cc1ccccc1)Nc1ccccc1)O2` (centres unmarked) [Compound 395] are “++” and “+”.
Take `COC(=O)C1=C(C(=O)OC)C2(C(Cc3ccccc3)Nc3cc(F)cc(Cl)c3)C=CC1O2` (centres unmarked) [Compound 209]: the SUMO entry at SUMO was “++”. In addition, in the assay with c-Myc, the c-Myc entry is “+”.
In the same order, the values of `CC#CC(Nc1ccccc1)C12C=CC(O1)C(C(=O)OC)=C2C(=O)OC` (centres unmarked) [Compound 172] are “++” and “++”.
The corresponding values for `COC(=O)C1=C(C(=O)NCc2ccccn2)C2C=CC1(C(Cc1ccccc1)Nc1ccccc1)O2` (centres unmarked) [Compound 396] are “+” and “++”.
In the same order, the values of `COC(=O)C1=C(C(=O)Nc2cnc(C)nc2)C2C=CC1(C(Cc1ccccc1)Oc1ccccc1)O2` (centres unmarked) [Compound 480] are “++” and “+”.
With `COC(=O)C1=C(C(=O)O)C2(C(Cc3ccccc3)Nc3cc(F)cc(F)c3)C=CC1O2` (centres unmarked) [Compound 310], the SUMO result on SUMO was “+”. In addition, the c-Myc result with c-Myc is “+”.
As to `CCN(CC)CCNC(=O)C1=C(C(=O)OC)C2(C(Cc3ccccc3F)Nc3cc(F)cc(F)c3)C=CC1O2` (centres unmarked) [Compound 456], the SUMO entry on SUMO is “++”. Moreover, the c-Myc result in the assay on c-Myc is “++”.
With `COC(=O)C1=C(C(=O)Nc2ccccc2)C2C=CC1(C(Cc1ccccc1)Nc1cccc(CO)c1)O2` (centres unmarked) [Compound 528], on SUMO, the SUMO entry is recorded as “++”. Further, the c-Myc result in the assay with c-Myc is “++”.
For `COC(=O)C1=C(C(=O)NCCN2CCCC2)C2C=CC1(C(Cc1ccc(C(F)(F)F)cc1)Nc1ccccc1)O2` (centres unmarked) [Compound 440], the SUMO entry on SUMO was “+++”. For the same compound, the c-Myc entry in the assay on c-Myc was “++”.
The corresponding values for `COCCN1CCC(NC(=O)C2=C(C(=O)OC)C3(C(Cc4ccccc4)Nc4ccccc4)CCC2O3)CC1` (centres unmarked) [Compound 367] are “+” and “+”.
As for `COC(=O)C1=C(C(=O)NCC2CCCN2C)C2C=CC1(C(Cc1ccccc1)Nc1ccccc1)O2` (centres unmarked) [Compound 418], the SUMO entry on SUMO is “++”. For the same compound, the c-Myc result in the assay on c-Myc is listed as “++”.
On to `CCOc1cccc(NC(Cc2ccccc2)C23C=CC(O2)C(C(=O)NCCN2CCOCC2)=C3C(=O)OC)c1` (centres unmarked) [Compound 252], for which the SUMO result at SUMO is “+++”. In addition, the c-Myc entry with c-Myc is on record as “++”.
In the same order, the values of `COC(=O)C1=C(C(=O)NC2CCN(C)CC2)C2(C(Cc3ccccc3)Nc3cc(F)cc(F)c3)C=CC1O2` (centres unmarked) [Compound 311] are “++” and “++”.
The corresponding values for `CNCCNC(=O)C1=C(C(=O)OC)C2(C(Cc3ccccc3)Nc3ccccc3)C=CC1O2` (centres unmarked) [Compound 437] are “+” and “+”.
In the case of `COC(=O)C1=C(C(=O)NCCN(C)C)C2C=CC1(C(Cc1ccc(Cl)cc1)Nc1cc(F)cc(F)c1)O2` (centres unmarked) [Compound 426], the SUMO result at SUMO is “++”. The c-Myc result with c-Myc is on record as “++”.
Turning to `COCCN1CCC(NC(=O)C2=C(C(=O)OC)C3(C(Cc4ccccc4)Nc4ccccc4)C=CC2O3)CC1` (centres unmarked) [Compound 278], the SUMO result at SUMO was “+++”. For the same compound, the c-Myc entry with c-Myc is “++”.
The corresponding values for `CCOc1cccc(NC(Cc2ccccc2)C23C=CC(O2)C(C(=O)NCc2ccncc2)=C3C(=O)OC)c1` (centres unmarked) [Compound 254] are “++” and “+”.
The corresponding values for `CCN(CC)CCNC(=O)C1=C(C(=O)OC)C2C=CC1(C(Cc1ccccc1)Nc1cc(F)cc(F)c1)O2` (centres unmarked) [Compound 402] are “++” and “+”.
In the case of `COC(=O)C1=C(C(=O)NNc2cc(C(F)(F)F)cc(C(F)(F)F)c2)C2(C(Cc3ccccc3)Nc3cc(F)cc(F)c3)C=CC1O2` (centres unmarked) [Compound 316], the SUMO entry at SUMO was “++”. Further, the c-Myc entry in the assay with c-Myc is on record as “+”.
The corresponding values for `COC(=O)C1=C(C(=O)NC2CCN(C(=O)NCC3CCCO3)CC2)C2C=CC1(C(Cc1ccccc1)Nc1ccccc1)O2` (centres unmarked) [Compound 382] are “++” and “+”.
As to `COC(=O)C1=C(C(=O)NCCN(C)C)C2C=CC1(C(Cc1ccccc1)Nc1cc(F)cc(F)c1)O2` (centres unmarked) [Compound 399], at SUMO, the SUMO result is listed as “++”. The c-Myc entry with c-Myc is listed as “+”.
The corresponding values for `CCOC(=O)C1=C(C(=O)Nc2ccc(C)c(F)c2)C2(C)C=CC1(C(Nc1ccccc1)c1ccc(CN3CCOCC3)cc1)O2` (centres unmarked) [Compound 579] are “+” and “+”.
As to `CCN(CC)CCNC(=O)C1=C(C(=O)OC)C2(C(Cc3ccccc3)Oc3ccccc3)C=CC1O2` (centres unmarked) [Compound 439], the SUMO result at SUMO is reported as “++”. Further, the c-Myc result in the assay on c-Myc is “++”.
Regarding `COC(=O)C1=C(C(=O)NC2CCN(C(C)=O)CC2)C2CCC1(C(Cc1ccccc1)Nc1ccccc1)O2` (centres unmarked) [Compound 368], at SUMO, the SUMO entry is given as “+”. Moreover, the c-Myc result in the assay on c-Myc is on record as “+”.
`CCCCC(Nc1cc(F)cc(F)c1)C12C=CC(O1)C(C(=O)NC1CCN(C)CC1)=C2C(=O)OC` (centres unmarked) [Compound 266]: the SUMO entry on SUMO is listed as “+++”. In addition, in the assay with c-Myc, the c-Myc result is listed as “+”.
In the same order, the values of `COC(=O)C1=C(C(=O)NCC2CCCO2)C2C=CC1(C(Cc1ccccc1)Nc1ccccc1)O2` (centres unmarked) [Compound 405] are “++” and “+”.
Regarding `COC(=O)C1=C(C(=O)NC2CCN(C(C)C)CC2)C2C=CC1(C(Cc1ccccc1)Nc1ccccc1)O2` (centres unmarked) [Compound 277], the SUMO result on SUMO is “+++”. Also, in the assay on c-Myc, the c-Myc result was “++”.
In the same order, the values of `COC(=O)C1=C(C(=O)NC2CCN(C(=O)c3ccccn3)CC2)C2C=CC1(C(Cc1ccccc1)Nc1ccccc1)O2` (centres unmarked) [Compound 391] are “++” and “+”.
`COC(=O)C1=C(C(=O)NCCN(C)C)C2C=CC1(C(Cc1ccccc1)Nc1ccc(F)cc1F)O2` (centres unmarked) [Compound 409]: on SUMO, the SUMO entry is on record as “++”. The c-Myc result in the assay on c-Myc is on record as “++”.
`COC(=O)C1=C(C(=O)Nc2cnc(C)nc2)C2C=CC1(C(Cc1ccccc1)Nc1ccccc1)O2` (centres unmarked) [Compound 478]: on SUMO, the SUMO entry was “+++”. Further, the c-Myc entry in the assay with c-Myc was “+”.
Consider `COC(=O)C1=C(C(=O)Nc2ccc(CN(C)C)cc2)C2C=CC1(C(Cc1ccccc1)Nc1ccccc1)O2` (centres unmarked) [Compound 506], for which the SUMO entry on SUMO is listed as “++”. In addition, the c-Myc entry in the assay with c-Myc is given as “+”.
Regarding `CCOC(=O)C1=C(C(=O)Nc2ccccc2Oc2ccccc2)C2C=CC1(C(Nc1ccccc1)c1ccc(CN3CCOCC3)cc1)O2` (centres unmarked) [Compound 608], on SUMO, the SUMO entry is on record as “+”. The c-Myc entry in the assay with c-Myc is recorded as “+”.
For the compound `CCOC(=O)C1=C(C(=O)Nc2ccccc2C)C2C=CC1(C(Nc1ccccc1)c1ccc(CN3CCOCC3)cc1)O2` (centres unmarked) [Compound 591], on SUMO, the SUMO result is reported as “++”. Also, the c-Myc result in the assay with c-Myc is given as “++”.
For the compound `COC(=O)C1=C(C(N)=O)C2C=CC1(C(Cc1ccccc1)Nc1cc(F)cc(Cl)c1)O2` (centres unmarked) [Compound 217], at SUMO, the SUMO entry is listed as “+”. In the assay on c-Myc, the c-Myc entry was “++”.
